In one assay the target is T1, human Tie2 (Homo sapiens, UniProt Q02763).
T1 construct: amino acids of the intracellular domain 776-1124; made in house
The assay can be described thus: Tie2 assay of PLC phosphorylation (FlashPlate). Format: biochemical. The settings on record: read-out: IC 50 TIE2.

Another assay concerns the target T2, Aurora2 (Homo sapiens, UniProt O14965).
T2 construct: Aurora 2: whole recombinant protein comprising an N-terminal histidine tail; His tag (histidine tail) (N); made in house; host or cells: E. coli
T2 sequence (O14965 1-403): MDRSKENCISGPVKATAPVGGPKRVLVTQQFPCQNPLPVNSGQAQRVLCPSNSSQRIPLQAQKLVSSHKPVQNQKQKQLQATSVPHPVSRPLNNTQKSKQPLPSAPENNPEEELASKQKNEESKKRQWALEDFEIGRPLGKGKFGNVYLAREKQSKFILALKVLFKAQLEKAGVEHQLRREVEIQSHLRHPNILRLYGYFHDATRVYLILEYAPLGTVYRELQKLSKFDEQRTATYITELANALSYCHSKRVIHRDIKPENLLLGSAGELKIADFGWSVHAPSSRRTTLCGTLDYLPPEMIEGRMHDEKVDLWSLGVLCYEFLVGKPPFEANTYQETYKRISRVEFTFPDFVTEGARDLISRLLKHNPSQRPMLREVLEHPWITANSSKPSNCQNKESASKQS
Description: Aurora2 enzyme assay, NuMA substrate phosphorylation (Flashplate). The format is biochemical. The settings on record: read-out: IC 50 Aurora2. An outline of the steps:
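Recombinant full-length N-His Aurora2 (E. coli), 10 nM, phosphorylates 500 nM His-NuMA fragment with 1 µM ATP plus [33P]ATP in Tris/HCl pH 7.5, NaCl, MgCl2, DTT, 37 °C, 30 min, on Ni-chelate Flashplates. Incorporated 33P counted by scintillation; percent inhibition versus enzyme control after background subtraction.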

Structures can show the parent of a compound that is named as a salt.

From patent US7517902B2, “Substituted indazoles, compositions containing the same, and the preparation and use thereof” (Aventis Pharma S.A., priority 2004, dated 2009) come the findings set out here.

T1 sequence (Q02763 776-1124): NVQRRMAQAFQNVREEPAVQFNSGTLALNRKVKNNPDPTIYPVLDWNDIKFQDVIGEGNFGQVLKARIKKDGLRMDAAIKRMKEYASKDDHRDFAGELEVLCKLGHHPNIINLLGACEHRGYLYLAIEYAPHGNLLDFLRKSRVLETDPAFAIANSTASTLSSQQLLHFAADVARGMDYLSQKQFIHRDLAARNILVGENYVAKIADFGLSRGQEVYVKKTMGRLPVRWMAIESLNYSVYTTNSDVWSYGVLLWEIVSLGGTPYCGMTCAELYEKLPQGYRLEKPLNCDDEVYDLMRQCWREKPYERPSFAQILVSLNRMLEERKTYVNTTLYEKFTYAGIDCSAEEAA

On to `Nc1n[nH]c2c(F)c(-c3ccc(NS(=O)(=O)c4cccc(Cl)c4Cl)cc3)ccc12` [Example 8, 1-[4-(3-Amino-1H-indazol-6-yl)-7-fluorophenyl]-2,3-dichlorobenzenesulfonamide hydrochloride], for which the IC50 at human Tie2 was found to be 10 nM; on Aurora2 it was 87 nM.
Consider `Nc1n[nH]c2cc(-c3ccc(NS(=O)(=O)c4cccc(Cl)c4Cl)cc3)ccc12` [Example 2, 1-[4-(3-Amino-1H-indazol-6-yl)phenyl]-2,3-dichlorobenzenesulfonamide hydrochloride], for which the results for the IC50 at human Tie2 and on Aurora2 were 15 nM and 200 nM, respectively.
The matching figures for `O=C(Nc1n[nH]c2cc(-c3ccc(NS(=O)(=O)c4cccc(Cl)c4Cl)cc3)ccc12)c1ccsc1` [Example 3, 3-Thiophenecarboxylic acid {6-[4-(2,3dichlorobenzenesulfonylamino)phenyl]-1H-indazol-3-yl}amide]: 4 nM and 133 nM.
The matching figures for `O=C(Nc1n[nH]c2c(F)c(-c3ccc(NS(=O)(=O)c4cccc(Cl)c4Cl)cc3)ccc12)c1ccsc1` [Example 5, 3-Thiophenecarboxylic acid {6-[4-(2,3-dichlorobenzenesulfonylamino)-7-fluorophenyl]-1H-indazol-3-yl}amide]: 2 nM and 37 nM.
